Reference: article PMC12550625, “A Potent Oral Sialylation Inhibitor Augments the Immunotherapy in Pancreatic Ductal Adenocarcinoma” (ACS Central Science, 2025)
pKd: −log10 of the molar value.

Columns and labels:
ST3Gal1 = biological target: T1, ST3Gal1 (Sus scrofa, UniProt Q02745); assay: SPR (CM5 chip, immobilized purified ST3Gal1); assay type: binding
T1 construct: Δ45, N-terminal 6xHis-MBP fusion
T1 sequence (Q02745 46-343): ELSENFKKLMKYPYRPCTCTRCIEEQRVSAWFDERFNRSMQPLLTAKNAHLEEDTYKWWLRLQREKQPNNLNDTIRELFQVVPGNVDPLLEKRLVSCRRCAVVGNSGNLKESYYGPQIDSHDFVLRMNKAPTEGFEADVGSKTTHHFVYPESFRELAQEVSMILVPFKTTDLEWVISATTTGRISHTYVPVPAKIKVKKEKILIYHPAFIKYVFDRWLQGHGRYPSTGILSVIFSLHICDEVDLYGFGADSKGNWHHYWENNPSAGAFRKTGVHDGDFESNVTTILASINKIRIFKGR

ST6Gal1 = biological target: T2, ST6Gal1 (Homo sapiens, UniProt P15907); assay: SPR (CM5 chip, immobilized purified ST6Gal1); assay type: binding
T2 construct: Δ131, 3xFLAG
T2 sequence (P15907 132-406): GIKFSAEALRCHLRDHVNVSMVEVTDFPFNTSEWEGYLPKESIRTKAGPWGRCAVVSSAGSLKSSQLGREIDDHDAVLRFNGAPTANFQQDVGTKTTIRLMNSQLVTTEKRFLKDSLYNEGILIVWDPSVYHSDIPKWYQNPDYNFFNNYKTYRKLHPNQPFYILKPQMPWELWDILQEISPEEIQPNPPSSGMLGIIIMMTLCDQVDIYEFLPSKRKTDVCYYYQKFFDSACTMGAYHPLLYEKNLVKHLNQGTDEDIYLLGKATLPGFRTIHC
Excerpt: SPR (CM5 chip, immobilized purified ST6Gal1) on ST6Gal1 | Pull-down and SPR analyses confirmed that Y-320 binds to ST6Gal1 with high affinity

pKd (ST3Gal1): 6.15 | pKd (ST6Gal1): 6.05
SMILES: Cc1c(C(=O)Nc2ccc(N3CCC(N4CCOCC4)CC3)c(C#N)c2)cnn1-c1ccc(Cl)cc1 [Y-320]
